Results as given in US10654867B2 (Genentech, Inc., priority 2016, dated 2020).

Molecular target: T1, estrogen receptor alpha (ESR1) in MCF7 breast cancer cells (Homo sapiens, UniProt P03372)
T1 sequence (P03372 1-595): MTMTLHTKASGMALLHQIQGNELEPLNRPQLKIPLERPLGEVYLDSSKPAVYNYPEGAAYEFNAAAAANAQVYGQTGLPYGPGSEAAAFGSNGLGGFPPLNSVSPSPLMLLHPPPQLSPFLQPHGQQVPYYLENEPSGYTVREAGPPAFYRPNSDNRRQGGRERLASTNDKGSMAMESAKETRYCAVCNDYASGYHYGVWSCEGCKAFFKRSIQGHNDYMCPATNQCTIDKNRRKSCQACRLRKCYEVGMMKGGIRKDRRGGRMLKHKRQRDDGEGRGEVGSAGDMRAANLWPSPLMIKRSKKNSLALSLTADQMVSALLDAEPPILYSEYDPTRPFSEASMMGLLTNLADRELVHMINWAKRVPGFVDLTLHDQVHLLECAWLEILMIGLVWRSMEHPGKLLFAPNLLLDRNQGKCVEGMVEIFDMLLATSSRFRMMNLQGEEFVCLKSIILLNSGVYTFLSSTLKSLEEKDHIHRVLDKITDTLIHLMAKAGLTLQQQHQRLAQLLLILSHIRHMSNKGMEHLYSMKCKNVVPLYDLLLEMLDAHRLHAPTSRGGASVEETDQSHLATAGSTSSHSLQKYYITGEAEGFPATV
Assay: Breast Cancer Cell ERa High Content Fluorescence Imaging Degradation Assay (ER-alpha MCF7 HCS)
Format: cell-based
Set-up: endogenous in cells; host or cells: MCF7 breast cancer cells; key to ERalpha (WT) MCF7HCS (Sinf): % change in ERα level; DMSO = 0%, fulvestrant = 100% change
Details: 4 hours, plateau of the maximal effect; for ER-alpha MCF7HCS Sinf: DMSO and fulvestrant define 0% and 100% change in ESR1, Table 1a; for ERalpha (WT) MCF7HCS (Sinf): DMSO and fulvestrant define 0% and 100% change in ESR1, Table 1b
Procedure: All of the exemplary Formula I, II, and III compounds in Tables 1a and 1b were made and characterized by LCMS [M+H]^+ (liquid chromatography mass spectroscopy) with detection of parent ion. All of the exemplary Formula I, II, and III compounds in Tables 1a and 1b were tested for binding to ERa (Estrogen Receptor alpha) and biological activity according to the assays, protocols, and procedures of Examples 901-907. ER-alpha MCF7 HCS Sinf (%) values in Tables 1a and 1b were measured by the Breast Cancer Cell ERa High Content Fluorescence Imaging Degradation Assay of Example 901. ER-alpha MCF7 HCS EC50 (μM) values in Tables 1a and 1b were measured by the in vitro cell proliferation assays described in Examples 902 and 903. The rat uterine wet weight assays of Examples 906 and 907 allow rapid determination of compound antagonist activity in an ER responsive tissue (immature rat uterus) while competing against the native ER ligand estradiol, i.e. antagonist mode (Ashby, J.; et al (1997) Regulatory toxicology and pharmacology: RTP, 25 (3):226-31). Exemplary Formula I, II, and III compounds in Tables 1a and 1b have the following structures, corresponding names (ChemBioDraw, Version 12.0.2, CambridgeSoft Corp., Cambridge Mass.), and biological activity. Where more than one name is associated with a Formula I, II, and III compound or intermediate, the chemical structure shall define the compound.
MCF7 breast cancer cells were seeded on day 1 at a density of 10,000 cells per well in 384 well poly-lysine coated tissue culture plate (Greiner # T-3101-4), in 50 μL/well RPMI (phenol red free), 10% FBS (Charcoal stripped), containing L-glutamine. On day 2, compounds were prepared at 2 compound source concentrations: 100 μM and 1 μM (ultimately to give 2 overlapping titration curves), in a Labcyte low dead volume plate, 10 μL/well, and 10 μL of DMSO in designated wells for backfill, and 5 μM Fulvestrant (control compound) in designated wells. Compounds and controls were dispensed using a Labcyte Echo acoustic dispenser to dispense compounds with a predefined serial dilution (1.8×, 10 point, in duplicate) and appropriate backfill and control compounds (final total volume transferred was 417.5 nL and compound dispense volume ranges from 2.5 nL to 417.5 nL; 0.84% DMSO (v/v) final), ultimately producing a concentration range from 0.05 nM to 835 nM. Cell plates were incubated at 37° C., for 4 hours. Fixation and permeabilization were carried out using a Biotek EL406 plate washer and dispenser as follows. Cells were fixed by addition of 15 μL of 16% paraformaldehyde (Electron Microscopy Sciences #15710-S) directly to the 50 μL cell culture medium in each well using the peristaltic pump 5 μL cassette on a Biotek EL406 (final concentration of formaldehyde was 3.7% w/v). Samples were incubated 30 minutes. Well contents was aspirated and 50 μL/well of Phosphate Buffered Saline (PBS) containing 0.5% w/v bovine serum albumen, 0.5% v/v Triton X-100 (Antibody Dilution Buffer) was added to each well. Samples were incubated for 30 minutes. Well contents were aspirated and washed 3 times with 100 μL/well of PBS. Immunofluorescence staining of estrogen receptor alpha (ESR1) was carried out using a Biotek EL406 plate washer and dispenser as follows. The well supernatant was aspirated from the wells and 25 μL/well of anti-ESR1 mAb (F10) (Santa Cruz sc-8002) diluted 1:1000 in Antibody Dilution Buffer was dispensed. Samples were incubated for 2 hours at room temperature. Samples were washed 4 times with 100 μL/well of PBS. 25 uL (microliters)/well of secondary antibody solution (Alexafluor 488 conjugate anti-mouse IgG (LifeTechnologies # A21202) diluted 1:1000 and Hoechst 33342 1 μg/ml diluted in Antibody Dilution Buffer) were dispensed into each well. Samples were incubated for 2 hours at room temperature. Samples were washed 3 times with 100 μL/well of PBS using a Biotek EL406. Quantitative fluorescence imaging of ESR1 was carried out using a Cellomics Arrayscan V (Thermo). […]

SMILES: CC1(C)CN(CC(F)(F)CO)[C@H](c2c(F)cc(NC3CN(CCCF)C3)cc2F)c2[nH]c3ccccc3c21 [Example 142, (R)-3-(1-(2,6-difluoro-4-(1-(3-fluoropropyl)azetidin-3-ylamino)phenyl)-4,4-dimethyl-3,4-dihydro-1H-pyrido[3,4-b]indol-2(9H)-yl)-2,2-difluoropropan-1-ol]
- ER-alpha MCF7HCS Sinf: −96%

SMILES: COc1cc2c3c([nH]c2cn1)[C@@H](c1c(F)cc(NC2CN(CCCF)C2)cc1F)N(CC(F)(F)CO)[C@H](C)C3 [Example 161, 3-((1R,3R)-1-(2,6-Difluoro-4-((1-(3-fluoropropyl)azetidin-3-yl)amino)phenyl)-6-methoxy-3-methyl-3,4-dihydro-1H-pyrrolo[2,3-c:5,4-c′]dipyridin-2(9H)-yl)-2,2-difluoropropan-1-ol]
- ERalpha (WT) MCF7HCS (Sinf): −97.3

SMILES: C[C@H]1CN(CC(C)(C)F)[C@H](c2c(F)cc(OCCN3CC(CF)C3)cc2F)c2[nH]c3ccccc3c21 (single isomer, unassigned) [Example 107]
- ER-alpha MCF7HCS Sinf: −97.8%

SMILES: C[C@H]1Cc2c(sc3ccccc23)[C@H](c2c(F)cc(NC3CN(CCCF)C3)cc2F)N1CC(F)(F)CO (single isomer, unassigned) [Example 160]
- ER-alpha MCF7HCS Sinf: −96.9%

SMILES: C[C@H]1Cc2[nH]c3ccccc3c2[C@H](c2c(F)cc(NC3CN(CCCF)C3)cc2F)N1CC(F)(F)CO (single isomer, unassigned) [Example 154]
- ER-alpha MCF7HCS Sinf: −30%

SMILES: C[C@@H]1Cn2c(cc3ccccc32)[C@@H](c2c(F)cc(NC3CN(CCCF)C3)cc2F)N1CC(F)(F)F [Example 146, N-(3,5-Difluoro-4-((1R,3R)-3-methyl-2-(2,2,2-trifluoroethyl)-1,2,3,4-tetrahydropyrazino[1,2-a]indol-1-yl)phenyl)-1-(3-fluoropropyl)azetidin-3-amine]
- ER-alpha MCF7HCS Sinf: −100%

SMILES: C[C@@H]1Cc2[nH]c3ccccc3c2[C@@H](c2c(F)cc(OCCN3CC(CF)C3)cc2F)N1CC(C)(C)F [Example 137, (1S,3R)-1-(2,6-difluoro-4-(2-(3-(fluoromethyl)azetidin-1-yl)ethoxy)phenyl)-2-(2-fluoro-2-methylpropyl)-3-methyl-2,3,4,5-tetrahydro-1H-pyrido[4,3-b]indole]
- ER-alpha MCF7HCS Sinf: −94.2%

SMILES: C[C@@H]1Cc2c([nH]c3ncccc23)[C@@H](c2c(F)cc(OC3CN(CCCF)C3)cc2F)N1CC(C)(C)F (single isomer, unassigned) [Example 120]
- ER-alpha MCF7HCS Sinf: −88.0%

SMILES: C[C@@H]1CCc2c([nH]c3ccccc23)[C@@H](c2c(F)cc(OCCN3CC(CF)C3)cc2F)N1CC(C)(C)F [Example 116, (1R,3R)-1-(2,6-difluoro-4-(2-(3-(fluoromethyl)azetidin-1-yl)ethoxy)phenyl)-2-(2-fluoro-2-methylpropyl)-3-methyl-1,2,3,4,5,10-hexahydroazepino[3,4-b]indole]
- ER-alpha MCF7HCS Sinf: −93.5%

SMILES: C[C@H]1Cc2[nH]c3ccccc3c2[C@H](c2c(F)cc(OCCN3CC(CF)C3)cc2F)N1CC(C)(C)F (single isomer, unassigned) [Example 136]
- ER-alpha MCF7HCS Sinf: −51%

SMILES: C[C@@H]1Cc2c([nH]c3ccccc23)[C@]2(CCc3cc(OCCN4CC(CF)C4)ccc32)N1CC(C)(C)F [Example 113, (1R,3′R)-2′-(2-fluoro-2-methylpropyl)-5-(2-(3-(fluoromethyl)azetidin-1-yl)ethoxy)-3′-methyl-2,2′,3,3′,4′,9′-hexahydrospiro[indene-1,1′-pyrido[3,4-b]indole]]
- ER-alpha MCF7HCS Sinf: −94.7%

SMILES: C[C@H]1Cc2oc3ccccc3c2[C@H](c2c(F)cc(OCCN3CC(CF)C3)cc2F)N1CC(C)(C)F (stereo in doubt) [Example 168, 1-(2,6-difluoro-4-(2-(3-(fluoromethyl)azetidin-1-yl)ethoxy)phenyl)-2-(2-fluoro-2-methylpropyl)-3-methyl-1,2,3,4-tetrahydrobenzofuro [3,2-c]pyridine]
- ERalpha (WT) MCF7HCS (Sinf): −97

SMILES: C[C@@H]1CN(CC(C)(C)F)[C@H](c2c(F)cc(OCCN3CC(CF)C3)cc2F)c2[nH]c3ccccc3c21 (single isomer, unassigned) [Example 108]
- ER-alpha MCF7HCS Sinf: −92.4%

SMILES: C[C@@H]1Cc2[nH]c3ccccc3c2[C@@H](c2c(F)cc(NC3CN(CCCF)C3)cc2F)N1CC(F)F [Example 150, N-(4-((1S,3R)-2-(2,2-difluoroethyl)-3-methyl-2,3,4,5-tetrahydro-1H-pyrido[4,3-b]indol-1-yl)-3,5-difluorophenyl)-1-(3-fluoropropyl) azetidin-3-amine]
- ER-alpha MCF7HCS Sinf: −99.4%

SMILES: C[C@@H]1CN(CC(C)(C)F)[C@@H](c2c(F)cc(OCCN3CC(CF)C3)cc2F)c2[nH]c3ccccc3c21 (single isomer, unassigned) [Example 109]
- ER-alpha MCF7HCS Sinf: −74.6%

SMILES: C[C@H]1Cc2c(oc3ccccc23)[C@H](c2c(F)cc(NC3CN(CCCF)C3)cc2F)N1CC(F)(F)CO (single isomer, unassigned) [Example 158]
- ER-alpha MCF7HCS Sinf: −88.8%

SMILES: C[C@@H]1Cc2[nH]c3ccccc3c2[C@@H](c2c(F)cc(NC3CN(CCCF)C3)cc2F)N1CC(F)(F)CO (single isomer, unassigned) [Example 155]
- ER-alpha MCF7HCS Sinf: −97.4%

SMILES: C[C@@H]1Cc2oc3ccccc3c2[C@@H](c2c(F)cc(OCCN3CC(CF)C3)cc2F)N1CC(C)(C)F (stereo in doubt) [Example 167, 1-(2,6-difluoro-4-(2-(3-(fluoromethyl)azetidin-1-yl)ethoxy)phenyl)-2-(2-fluoro-2-methylpropyl)-3-methyl-1,2,3,4-tetrahydrobenzofuro [3,2-c]pyridine]
- ERalpha (WT) MCF7HCS (Sinf): −96

SMILES: C[C@@H]1Cn2c(cc3ccccc32)[C@@H](c2c(F)cc(OC3CN(CCCF)C3)cc2F)N1CC(F)(F)F [Example 141, (1R,3R)-1-(2,6-difluoro-4-((1-(3-fluoropropyl)azetidin-3-yl)oxy)phenyl)-3-methyl-2-(2,2,2-trifluoroethyl)-1,2,3,4-tetrahydropyrazino[1,2-a]indole]
- ER-alpha MCF7HCS Sinf: −103%

SMILES: C[C@@H]1Cc2sc3ccccc3c2[C@@H](c2ccc(OCCN3CC(CF)C3)cc2)N1CC(C)(C)F [Example 128, (1R,3R)-2-(2-fluoro-2-methylpropyl)-1-(4-(2-(3-(fluoromethyl)azetidin-1-yl)ethoxy)phenyl)-3-methyl-1,2,3,4-tetrahydrobenzo[4,5]thieno[3,2-c]pyridine]
- ER-alpha MCF7HCS Sinf: −101%
